Laboratory results as given in patent publication US10023539B2, “Aryl-cyanoguanidine compounds” (Bayer Pharma Aktiengesellschaft, priority 2014, dated 2018).

Each compound was assayed against SMYD2 (Homo sapiens (Human), UniProt Q9NRG4) (assay: Scintillation Proximity Assay (SPA) for detection of SMYD2 enzymatic inhibition). Conditions: comparison example versus WO 2006/072350; read-out: IC50 [mol/l] (SPA Assay).
SMYD2, sequence (Q9NRG4 whole entry): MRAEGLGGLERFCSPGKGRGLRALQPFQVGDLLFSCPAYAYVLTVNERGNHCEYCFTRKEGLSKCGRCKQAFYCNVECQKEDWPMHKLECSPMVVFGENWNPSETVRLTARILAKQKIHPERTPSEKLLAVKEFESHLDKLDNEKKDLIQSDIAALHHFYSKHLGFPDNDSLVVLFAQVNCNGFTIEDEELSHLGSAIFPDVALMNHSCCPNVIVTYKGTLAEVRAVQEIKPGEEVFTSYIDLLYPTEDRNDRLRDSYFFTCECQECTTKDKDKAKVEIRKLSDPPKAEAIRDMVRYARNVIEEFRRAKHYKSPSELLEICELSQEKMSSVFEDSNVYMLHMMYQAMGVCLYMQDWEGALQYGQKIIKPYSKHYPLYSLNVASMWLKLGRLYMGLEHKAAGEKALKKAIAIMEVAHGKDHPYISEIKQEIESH
Assay type: biochemical
Method: 1.1 Scintillation Proximity Assay (SPA) for Detection of SMYD2 Enzymatic Inhibition
The SMYD2 full length enzyme was produced in-house by expression (with an N-terminal 6×His tag) in E. coli and purification by affinity chromatography on a Ni-NTA Sepharose column followed by a size exclusion chromatography step on a Superdex 200 16/60 column (GE Healthcare).
To this end, 100-fold concentrated compound solutions (in DMSO) were previously prepared by serial dilution (1:3.4) of 2 mM stocks in a clear low volume 384-well source microtiter plate (Greiner Bio-One), from which 50 nl of compound solutions were transferred into a white low volume test microtiter plate from the same supplier. […] The samples were then incubated for 15 min at 22° C. to allow pre-equilibration of the putative enzyme-inhibitor complexes before the start of the methylation reaction, which was initiated by the addition of 2.5 μl 2-fold concentrated solution (in assay buffer) of titrated S-Adenosyl-L-Methionine (3H-SAM, Perkin Elmer, final concentration: 60 nM) and p53 Peptide substrate (final concentration: 1.0 μM). The resulting mixture (5 μl final volume) was shortly centrifuged (2 min., 1500 rpm) and incubated at 22° C. during 30 min. Thereupon the reaction was stopped by adding 3 μl of Streptavidin PS SPA imaging beads (Perkin Elmer, final concentration of 3.12 μg/μl) and “cold” SAM (AK Scientific, 25 μM final concentration) for non-specific binding reduction. Plates containing the stopped reaction were sealed with transparent adhesive foil (Perkin Elmer), centrifuged (2 min., 1500 rpm), and further incubated for—at least—1 h at RT (or overnight at 4° C.) in order to allow the SPA signals to develop. […] IC50 values were calculated by fitting the normalized inhibition data to a 4-parameter logistic equation using the “Screener” analysis software from Genedata.
An IC50 of 548 nM was found for CCN(C(=O)CO)C1CN(/C(=N\C#N)Nc2cccc(OC(F)F)c2)N=C1c1ccc(Cl)cc1 (stereo not drawn) [WO 2006/072350 Example 67 more active isomer, reference compound] in this work.

Same assay, conditions: methylation of biotinylated p53 Peptide, 3H-SAM, full length SMYD2; read-out: IC50 [mol/l] (SPA Assay)
An IC50 of 488 nM was found for CCN(C(=O)[C@H](C)N)C1CN(/C(=N\C#N)Nc2cccc(OC(F)F)c2)N=C1c1ccc(Cl)c(C)c1 (single isomer, unassigned) [Example 34.2, N-[3-(4-chloro-3-methylphenyl)-1-{N′-cyano-N-[3-(difluoromethoxy)phenyl]carbamimidoyl}-4,5-dihydro-1H-pyrazol-4-yl]-N-ethyl-L-alaninamide] in this work.
An IC50 of 64.8 nM was found for CCN(C(=O)CO)C1CN(/C(=N\C#N)Nc2ccc(F)c(OC(F)F)c2)N=C1c1ccc(Cl)c(Cl)c1 (racemic) [Example 22, Rac-N-[1-{N′-cyano-N-[3-(difluoromethoxy)-4-fluorophenyl]carbamimidoyl}-3-(3,4-dichlorophenyl)-4,5-dihydro-1H-pyrazol-4-yl]-N-ethyl-2-hydroxyacetamide] in this work.
An IC50 of 83.3 nM was found for CN(C(=O)CO)C1CN(/C(=N\C#N)Nc2cccc(OC(F)F)c2)N=C1c1ccc(Cl)c(Cl)c1 (racemic) [Example 2, Rac-N-[1-{N′-cyano-N-[3-(difluoromethoxy)phenyl]carbamimidoyl}-3-(3,4-dichlorophenyl)-4,5-dihydro-1H-pyrazol-4-yl]-2-hydroxy-N-methylacetamide] in this work.
An IC50 of 138 nM was found for CCN(C(=O)CO)C1CN(/C(=N\C#N)Nc2cccc(OC(F)(F)F)c2F)N=C1c1ccc(Cl)c(Cl)c1 (racemic) [Example 12, Rac-N-[1-{N′-cyano-N-[2-fluoro-3-(trifluoromethoxy)phenyl]carbamimidoyl}-3-(3,4-dichlorophenyl)-4,5-dihydro-1H-pyrazol-4-yl]-N-ethyl-2-hydroxyacetamide] in this work.
An IC50 of 2980 nM was found for CCN(C(=O)CO)C1CN(/C(=N\C#N)Nc2ccc(Cl)c(OC(F)F)c2)N=C1c1ccc(Cl)c(Cl)c1 (single isomer, unassigned) [Example 11.2, N-[1-{N-[4-chloro-3-(difluoromethoxy)phenyl]-N′-cyanocarbamimidoyl}-3-(3,4-dichlorophenyl)-4,5-dihydro-1H-pyrazol-4-yl]-N-ethyl-2-hydroxyacetamide] in this work.
An IC50 of 19.2 nM was found for CCN(C(=O)CO)C1CN(/C(=N\C#N)Nc2cc(F)cc(OC(F)F)c2)N=C1c1ccc(Cl)c(Cl)c1 (single isomer, unassigned) [Example 24.2, N-[1-{N′-cyano-N-[3-(difluoromethoxy)-5-fluorophenyl]carbamimidoyl}-3-(3,4-dichlorophenyl)-4,5-dihydro-1H-pyrazol-4-yl]-N-ethyl-2-hydroxyacetamide] in this work.
An IC50 of 2660 nM was found for CCN(C(=O)CO)C1CN(/C(=N\C#N)Nc2cccc(OC(F)(F)F)c2F)N=C1c1ccc(Cl)c(Cl)c1 (single isomer, unassigned) [Example 12.1, N-[1-{N′-cyano-N-[2-fluoro-3-(trifluoromethoxy)phenyl]carbamimidoyl}-3-(3,4-dichlorophenyl)-4,5-dihydro-1H-pyrazol-4-yl]-N-ethyl-2-hydroxyacetamide] in this work.
An IC50 of 15400 nM was found for CCN(C(=O)[C@H](C)N)C1CN(/C(=N\C#N)Nc2cccc(OC(F)F)c2)N=C1c1ccc(Cl)c(C)c1 (single isomer, unassigned) [Example 34.1, N-[3-(4-chloro-3-methylphenyl)-1-{N′-cyano-N-[3-(difluoromethoxy)phenyl]carbamimidoyl}-4,5-dihydro-1H-pyrazol-4-yl]-N-ethyl-L-alaninamide] in this work.
An IC50 of 2400 nM was found for CCN(C(=O)[C@H](N)CC(C)C)C1CN(/C(=N\C#N)Nc2cccc(OC(F)(F)F)c2)N=C1c1ccc(Cl)c(Cl)c1 (stereo partly drawn) [Example 39, N-[1-{N′-cyano-N-[3-(trifluoromethoxy)phenyl]carbamimidoyl}-3-(3,4-dichlorophenyl)-4,5-dihydro-1H-pyrazol-4-yl]-N-ethyl-D-leucinamide] in this work.
An IC50 of 54.1 nM was found for CCN(C(=O)CO)C1CN(/C(=N\C#N)Nc2cccc(OC(F)(F)F)c2F)N=C1c1ccc(Cl)c(Cl)c1 (single isomer, unassigned) [Example 12.2, N-[1-{N′-cyano-N-[2-fluoro-3-(trifluoromethoxy)phenyl]carbamimidoyl}-3-(3,4-dichlorophenyl)-4,5-dihydro-1H-pyrazol-4-yl]-N-ethyl-2-hydroxyacetamide] in this work.
An IC50 of 2510 nM was found for CCN(C(=O)CO)C1CN(/C(=N\C#N)Nc2cc(F)cc(OC(F)F)c2)N=C1c1ccc(Cl)c(Cl)c1 (single isomer, unassigned) [Example 24.1, N-[1-{N′-cyano-N-[3-(difluoromethoxy)-5-fluorophenyl]carbamimidoyl}-3-(3,4-dichlorophenyl)-4,5-dihydro-1H-pyrazol-4-yl]-N-ethyl-2-hydroxyacetamide] in this work.
An IC50 of 418 nM was found for CCN(C(=O)[C@H](N)C(C)C)C1CN(/C(=N\C#N)Nc2cccc(OC(F)(F)F)c2F)N=C1c1ccc(Cl)c(Cl)c1 (stereo partly drawn) [Example 40, N-[1-{N′-Cyano-N-[2-fluoro-3-(trifluoromethoxy)phenyl]carbamimidoyl}-3-(3,4-dichlorophenyl)-4,5-dihydro-1H-pyrazol-4-yl]-N-ethyl-D-valinamide] in this work.
An IC50 of 147 nM was found for CCN(C(=O)CO)C1CN(/C(=N\C#N)Nc2ccc(F)c(OC(F)(F)F)c2)N=C1c1ccc(Cl)c(Cl)c1 (racemic) [Example 14, Rac-N-[1-{N′-cyano-N-[4-fluoro-3-(trifluoromethoxy)phenyl]carbamimidoyl}-3-(3,4-dichlorophenyl)-4,5-dihydro-1H-pyrazol-4-yl]-N-ethyl-2-hydroxyacetamide] in this work.
An IC50 of 140 nM was found for CCN(C(=O)CO)C1CN(/C(=N\C#N)Nc2cc(C(F)(F)F)ccc2OC(F)(F)F)N=C1c1ccc(Cl)c(Cl)c1 (racemic) [Example 28, Rac-N-[1-{N′-cyano-N-[2-(trifluoromethoxy)-5-(trifluoromethyl)phenyl]carbamimidoyl}-3-(3,4-dichlorophenyl)-4,5-dihydro-1H-pyrazol-4-yl]-N-ethyl-2-hydroxyacetamide] in this work.
An IC50 of 44.1 nM was found for CCN(C(=O)CO)C1CN(/C(=N\C#N)Nc2ccc(Cl)c(OC(F)F)c2)N=C1c1ccc(Cl)c(Cl)c1 (single isomer, unassigned) [Example 11.1, N-[1-{N-[4-chloro-3-(difluoromethoxy)phenyl]-N′-cyanocarbamimidoyl}-3-(3,4-dichlorophenyl)-4,5-dihydro-1H-pyrazol-4-yl]-N-ethyl-2-hydroxyacetamide] in this work.
An IC50 of 63.1 nM was found for CCN(C(=O)CO)C1CN(/C(=N\C#N)Nc2cc(F)cc(OC(F)F)c2)N=C1c1ccc(Cl)c(Cl)c1 (racemic) [Example 24, Rac-N-[1-{N′-cyano-N-[3-(difluoromethoxy)-5-fluorophenyl]carbamimidoyl}-3-(3,4-dichlorophenyl)-4,5-dihydro-1H-pyrazol-4-yl]-N-ethyl-2-hydroxyacetamide] in this work.
An IC50 of 73.5 nM was found for CCN(C(=O)[C@H](N)C(C)C)C1CN(/C(=N\C#N)Nc2cccc(OC(F)F)c2)N=C1c1ccc(Cl)c(Cl)c1 (stereo partly drawn) [Example 41, N-[1-{N′-Cyano-N-[3-(difluoromethoxy)phenyl]carbamimidoyl}-3-(3,4-dichlorophenyl)-4,5-dihydro-1H-pyrazol-4-yl]-N-ethyl-D-valinamide] in this work.
An IC50 of 67.4 nM was found for CCN(C(=O)CO)C1CN(/C(=N\C#N)Nc2cccc(OC(F)F)c2F)N=C1c1ccc(Cl)c(Cl)c1 (racemic) [Example 23, Rac-N-[1-{N′-cyano-N-[3-(difluoromethoxy)-2-fluorophenyl]carbamimidoyl}-3-(3,4-dichlorophenyl)-4,5-dihydro-1H-pyrazol-4-yl]-N-ethyl-2-hydroxyacetamide] in this work.
An IC50 of 157 nM was found for CCN(C(=O)CO)C1CN(/C(=N\C#N)Nc2cccc(OC(F)(F)F)c2)N=C1c1ccc(Cl)c(F)c1 (racemic) [Example 35, Rac-N-[3-(4-chloro-3-fluorophenyl)-1-{N′-cyano-N-[3-(trifluoromethoxy)phenyl]-carbamimidoyl}-4,5-dihydro-1H-pyrazol-4-yl]-N-ethyl-2-hydroxyacetamide] in this work.
An IC50 of 59.5 nM was found for CCN(C(=O)CN)C1CN(/C(=N\C#N)Nc2cccc(OCCN(C)C)c2)N=C1c1ccc(Cl)c(Cl)c1 (racemic) [Example 17, Rac-N-[1-(N′-cyano-N-{3-[2-(dimethylamino)ethoxy]phenyl}carbamimidoyl)-3-(3,4-dichlorophenyl)-4,5-dihydro-1H-pyrazol-4-yl]-N-ethylglycinamide] in this work.
An IC50 of 518 nM was found for C[C@H](O)C(=O)NC1CN(/C(=N\C#N)Nc2cccc(OC(F)F)c2)N=C1c1ccc(Cl)c(Cl)c1 (mixture of isomers) [Example 1, (2S)—N-[1-{N′-cyano-N-[3-(difluoromethoxy)phenyl]carbamimidoyl}-3-(3,4-dichlorophenyl)-4,5-dihydro-1H-pyrazol-4-yl]-2-hydroxypropanamide] in this work.
An IC50 of 15.8 nM was found for CCN(C(=O)CO)C1CN(/C(=N\C#N)Nc2cc(C(F)(F)F)ccc2OCCN2CCCC2)N=C1c1ccc(Cl)c(Cl)c1 (racemic) [Example 30, Rac-N-[r-(N′-cyano-N-[2-[2-(pyrrolidin-1-yl)ethoxy]-5-(trifluormethyl)phenyl]carbamimidoyl)-3-(3,4-dichlorophenyl)-4,5-dihydro-1H-pyrazol-4-yl]-N-ethyl-2-hydroxyacetamide] in this work.
